In patent publication US4414204A, “Antibiotic preparations having increased effectiveness, processes for their manufacture and method for increasing the antibiotic action of antibiotics” (Ciba-Geigy Corporation, priority 1979, dated 1983):

Assays:
Type in all cases: in vivo
[1] = system: Klebsiella pneumoniae; test: Mice infected i.p. with Klebsiella pneumoniae, treated s.c. with cefroxadin alone or with muramylpeptide; survival, ED50; conditions: 2×10^4 cfu Klebsiella pneumoniae i.p., cefroxadin twice s.c. (0 and 3 h after infection) with 10 mg/kg N-acetylmuramyl-L-alanyl-D-isoglutaminyl-L-alanyl-2-(1',2'-dipalmitoyl-sn-glycero-3'-hydroxyphosphoryloxy)-ethylamide, survivors counted 4 and 10 days after infection
Description: (§1) For this purpose, animals are infected with a lethal or sub-lethal dose of a pathogenic micro-organism and then the specified novel preparation of the individual doses of muramylpeptide and antibiotic are administered. The action is determined as ED50, that is to say, the dose at which 50% of the animals survive.
(§2) Laboratory white mice are infected i.p. with 2×10^4 cfu (colony forming units) of Klebsiella pneumoniae, 0.1×10^4 cfu of Pasteurella multocida or 40×10^4 cfu of Salmonella typhimurium in salt solution so that 90 to 100% of the untreated control animals die within 48 hours. Immediately after infection and 3 hours after infection, groups of 10 mice are treated with cefroxadin, both alone (without muramylpeptide) and in combination with 10 mg/kg of N-acetylmuramyl-L-alanyl-D-isoglutaminyl-L-alanyl-2-(1',2'-dipalmitoyl-sn- glycero-3'-hydroxyphosphoryloxy)-ethylamide, these being administered twice subcutaneously in the form of aqueous solutions or suspensions. A count of the surviving animals was made 4 and 10 days after infection.

[2] = system: Pasteurella multocida; test: Mice infected i.p. with Pasteurella multocida, treated s.c. with cefroxadin alone or with muramylpeptide; survival, ED50; conditions: 0.1×10^4 cfu Pasteurella multocida i.p., cefroxadin twice s.c. (0 and 3 h after infection) with 10 mg/kg N-acetylmuramyl-L-alanyl-D-isoglutaminyl-L-alanyl-2-(1',2'-dipalmitoyl-sn-glycero-3'-hydroxyphosphoryloxy)-ethylamide, survivors counted 4 and 10 days after infection
Description: as §1, §2

[3] = system: Salmonella typhimurium; test: Mice infected i.p. with Salmonella typhimurium, treated s.c. with cefroxadin alone or with muramylpeptide; survival, ED50; conditions: 40×10^4 cfu Salmonella typhimurium i.p., cefroxadin twice s.c. (0 and 3 h after infection) with 10 mg/kg N-acetylmuramyl-L-alanyl-D-isoglutaminyl-L-alanyl-2-(1',2'-dipalmitoyl-sn-glycero-3'-hydroxyphosphoryloxy)-ethylamide, survivors counted 4 and 10 days after infection
Description: as §1, §2

Measured: ED50 values for the antibiotic in combination with the muramylpeptide versus alone

COC1=C(C(=O)O)N2C(=O)[C@@H](NC(=O)[C@H](N)C3=CCC=CC3)[C@H]2SC1 [cefroxadin, 7β-[D-2-amino-2-(1,4-cyclohexadienyl)-acetamido]-3-methoxy-3-cephem-4-carboxylic acid]
lower by a multiple: all assays above
